Results on twelve molecules are retold here after PubChem BioAssay AID1198 (NMMLSC, 2008).

One may read the EC50 as the concentration at which the effect is half-maximal.

The source made the active and inactive calls.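 How the source made its calls: active means EC50 under 10 microM for raising side scatter, a sign of cell differentiation; inactive means the rest, including fits that never converged.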

The test system of this test is LNCaP side scatter shift, flow cytometry, 4 days. The test can be described thus: LNCaP side scatter shift induction by compounds – cell-based, flow cytometry, side scatter granularity, dose response (AID 1198). (A flow cytometer gives signals particle by particle.)
With `CCN1CCN(c2ncc(C(=O)Nc3cc(Cl)c(OC)cc3OC)c3ccccc23)CC1`, the EC50 is 5.59 µM.
As for `Oc1c(CN2CCCCC2)cc(COCc2ccccc2)c2cccnc12`, the EC50 is 3.81 µM.
For the molecule `CCOc1ccc(-c2cc(C(=O)NCCCN3CCN(CC)CC3)c3ccccc3n2)cc1`, the concentration for a half-maximal effect (EC50) was 6.41 µM.
Take `CC1CCCCN1CCNC(=O)c1ccc2c(=O)n(CCc3ccccc3)c(=O)[nH]c2c1` (configuration not stated): the EC50 is 6.5 µM.
The same measure for `CCOc1ccccc1NC(=O)c1nc[nH]c1C(=O)Nc1ccccc1OCC`: 6.66 µM; for `CCCN(CCC)CCNC(=O)C1CCN(Cc2nc(-c3ccc(Cl)cc3)oc2C)CC1`: 0.768 µM.
The figure for `Cc1ccc2c(c1)-c1c(cnn1CC(=O)Nc1ccccc1N1CCN(C)CC1)CO2` is 8.06 µM; for `Cn1c(C(=O)NCCCN2CCN(c3cccc(Cl)c3)CC2)cc2c(=O)n(C)c3ccccc3c21` it is 0.87 µM.
Consider `CCn1c(=O)cc(SCC(=O)NCCCN2CCN(c3ccccc3F)CC2)c2ccccc21`, for which the EC50 was 8.92 µM.
On to `COc1ccc(-c2ccc(-c3noc(-c4ccccc4)n3)c(OC)n2)cc1`, for which the EC50 was 10.4 µM (inactive).
Regarding `Cc1ccccc1-c1nc(CN2CCC(C(=O)NCCCN3CCOCC3)CC2)c(C)o1`, the EC50 is 6.69 µM.
In the case of `CCN1CCN(C(c2cccs2)C(C)NS(=O)(=O)c2ccc(Br)cc2)CC1` (configuration not stated), the EC50 is 15.2 µM (inactive).
